# In paper PMC4456360, “A Recombinant Fungal Lectin for Labeling Truncated Glycans on Human Cancer Cells” (PLoS ONE, 2015):
# What was measured:
# [1] = test system: HBEC-3KT cell line; format: cell-based, human
# [2] = test system: glandular compartment of the stomach and small intestine; assay: Labeling of healthy tissues by biotinylated rPVL; settings: 100 mM GlcNAc
# Method: Ethanol-fixed human trachea, esophagus, duodenal junction, jejunum, colon, pancreas, liver, ovary, uterus and vagina samples were obtained from organ donors. 18 tissue samples from 10 different individuals were used to prepare a tissue microarray (TMA) of healthy tissues.
# The tissue sections were deparaffinized, then endogenous peroxidases were blocked by incubating the sections with PBS containing 3% hydrogen peroxide (v/v), for 5 mn. The sections were then blocked with BSA 5% (w/v) for 30 min at room temperature, followed by incubation with 0,7–1 μg ml^-1 biotinylated rPVL 1h at room temperature (Ethanol-fixed sections) or 2 μg ml^-1 of biotinylated rPVL in PBS at 4°C for 18h (for formalin-fixed sections). After washing the sections twice with PBS, an indirect biotin-streptavidin system and DAB (Ventana Medical Systems) or AEC (Vector laboratories) detection kits were used according to the manufacturer’s instructions. The developed slides were washed twice with PBS and counterstained with hematoxylin. After washing with water, the sections were dehydrated and mounted. Sections were observed under a BX41 microscope equipped with a DP-70 digital camera system (Olympus, Tokyo, Japan) or imaged with a NanoZoomer slide-scanner (Hamamatsu, Hamamatsu City).
# [3] = test system: M119; parameters: key to the marks not given beside the values; settings: M119, Melanoma
# [4] = test system: A549 cells; assay: Flow cytometry, lectin binding to A549 cells (glycosylation inhibitors, glycosidases); format: cell-based, human; settings: for Percentage of inhibition of MAH binding (mean fluorescence intensity): MAH 5 μg ml^-1; for Percentage of inhibition of rPVL binding (mean fluorescence intensity): biotinylated rPVL 1 μg ml^-1
compound,measurement,setting,value
"CC(=O)N[C@@H]1[C@@H](O)[C@H](O)[C@@H](CO)O[C@H]1O [GlcNAc, N-acetylglucosamine]",inhibition of rPVL binding by GlcNAc (in words),[1],complete inhibition
same,inhibition of rPVL staining by GlcNAc (in words),[2],partial inhibition
same,Inhibtion by GlcNac (of PVL staining),[3],++
"CC(=O)OC1O[C@@H](C)[C@@H](OC(C)=O)[C@@H](OC(C)=O)[C@@H]1F (stereo partly shown) [2-FF, 2-fluoro-peracetyl fucose]",Percentage of inhibition of MAH binding (mean fluorescence intensity),"[4]; A549 cells grown 4 days with 400 μM 2-Fluoro-Fucose, listed as 2F-fucose",did not affect
same,Percentage of inhibition of rPVL binding (mean fluorescence intensity),[4]; listed as 2F-fucose,did not affect
3-fluoro-peracetyl-neuraminic acid [3F-NeuAc],Percentage of inhibition of MAH binding (mean fluorescence intensity),[4]; A549 cells grown 4 days with 100 μM Fluoro-Neu5Ac,75%
same,Percentage of inhibition of rPVL binding (mean fluorescence intensity),[4],59%
